The subject of the assay is LMP1 expression in Kem I cells. Briefly: microbe, parasite or virus in culture. The settings on record: for Average LMP1 Fold Increase / Replicate 1-LMP1 Fold Increase / Replicate 2-LMP1 Fold Increase: Kem I cells, 2.5 uM, 48 hours; for Average LMP1 Fold Increase: average of replicates 1 and 2; for Replicate 1-LMP1 Fold Increase / Replicate 2-LMP1 Fold Increase: fold change in LMP1 transcript vs vehicle; for fold induction at 2.5 µM / fold induction at 1 µM: human gammaherpesvirus 4, 48 h. It counts as cell-based, EBV.

Where [1] appears, read: read-out: Average LMP1 Fold Increase, Kem I cells, 2.5 uM, 48 hours, average of replicates 1 and 2.
[2] abbreviates: read-out: Replicate 1-LMP1 Fold Increase, Kem I cells, 2.5 uM, 48 hours, fold change in LMP1 transcript vs vehicle.
Where [3] appears, read: read-out: Replicate 2-LMP1 Fold Increase, Kem I cells, 2.5 uM, 48 hours, fold change in LMP1 transcript vs vehicle.

SMILES strings stand for the structures. Counter-ions that a name gives are not always drawn. Like-named read-outs stand apart in the source and are kept apart here.

In the case of `CN(Cc1cnc2nc(N)nc(N)c2n1)c1ccc(C(=O)N[C@@H](CCC(=O)O)C(=O)O)cc1` [Abitrexate (Methotrexate)], the “Average LMP1 Fold Increase” value was found to be 3.17, the “Replicate 1-LMP1 Fold Increase” value was 3.70 and the “Replicate 2-LMP1 Fold Increase” value amounted to 2.64.
As for `NC(=O)c1ncn([C@@H]2O[C@H](CO)[C@@H](O)[C@H]2O)c1N` [Acadesine], the fold induction at 2.5 µM is, setting by setting: under setting [1], 0.58; under setting [2], 0.57; under setting [3], 0.59.
The corresponding values for `COc1ccc2cccc(CCNC(C)=O)c2c1` [Agomelatine] are 0.43, 0.34 and 0.52.
Regarding `Oc1ncnc2[nH]ncc12` [Allopurinol], the fold induction at 2.5 µM under setting [1] amounted to 0.11, the fold induction at 2.5 µM under setting [2] was determined as 0.09 and the fold induction at 2.5 µM under setting [3] amounted to 0.13.
In the case of `CCOC(=O)[C@H]1O[C@@H]1C(=O)N[C@@H](CC(C)C)C(=O)NCCC(C)C` [Aloxistatin], the fold induction at 2.5 µM runs as follows: under setting [1], 0.11; under setting [2], 0.1; under setting [3], 0.12.
`CCOC(=O)C1=C(COCCN)NC(C)=C(C(=O)OC)C1c1ccccc1Cl` (stereo not drawn) [Amlodipine]: the fold induction at 2.5 µM under setting [1] is 2.06, the fold induction at 2.5 µM under setting [2] came out at 0.51 and the fold induction at 2.5 µM under setting [3] is 3.61.
For `COc1cc(F)c(C(C)C)cc1-c1ccc(C(F)(F)F)cc1CN1C(=O)O[C@H](c2cc(C(F)(F)F)cc(C(F)(F)F)c2)[C@@H]1C` [Anacetrapib (MK-0859)], the “Average LMP1 Fold Increase” value was found to be 0.63, the “Replicate 1-LMP1 Fold Increase” value stood at 0.80 and the “Replicate 2-LMP1 Fold Increase” value was determined as 0.46.
In the case of `CC(C)(C#N)c1cc(Cn2cncn2)cc(C(C)(C)C#N)c1` [Anastrozole], the fold induction at 2.5 µM runs as follows: under setting [1], 0.94; under setting [2], 0.45; under setting [3], 1.42.
Regarding `COc1ccc(C(=O)N2CCCC2=O)cc1` [Aniracetam], the fold induction at 2.5 µM under setting [1] is 0.55, the fold induction at 2.5 µM under setting [2] was found to be 0.72 and the fold induction at 2.5 µM under setting [3] was 0.39.
Take `N#CC1(c2ccc(NC(=O)c3cccnc3NCc3ccncc3)cc2)CCCC1` [Apatinib]: the fold induction at 2.5 µM is, setting by setting: under setting [1], 0.87; under setting [2], 1.23; under setting [3], 0.5.
As to `O=c1cc(-c2ccc(O)cc2)oc2cc(O)cc(O)c12` [Apigenin], the fold induction at 2.5 µM is, setting by setting: under setting [1], 0.58; under setting [2], 0.69; under setting [3], 0.47.
For `COc1ccc(-n2nc(C(N)=O)c3c2C(=O)N(c2ccc(N4CCCCC4=O)cc2)CC3)cc1` [Apixaban], in that order: 0.32, 0.4 and 0.24.
As for `O=C1C(=O)N(Cc2ccc(Cl)c(Cl)c2)c2ccccc21` [Apoptosis Activator 2], the “Average LMP1 Fold Increase” value was found to be 0.82, the “Replicate 1-LMP1 Fold Increase” value is 0.87 and the “Replicate 2-LMP1 Fold Increase” value stood at 0.78.
`C[C@@H](O[C@H]1OCCN(Cc2n[nH]c(=O)[nH]2)[C@H]1c1ccc(F)cc1)c1cc(C(F)(F)F)cc(C(F)(F)F)c1` [Aprepitant]: the fold induction at 2.5 µM was 0.99 under setting [1], 1.58 under setting [2] and 0.41 under setting [3].
With `O=C(O)c1cccc(-c2noc(-c3ccccc3F)n2)c1` [Ataluren (PTC124)], the “Average LMP1 Fold Increase” value is 0.49, the “Replicate 1-LMP1 Fold Increase” value amounted to 0.50 and the “Replicate 2-LMP1 Fold Increase” value was 0.48.
As to `CN(C)C(=O)Nc1cccc(-c2ccc(N(C)C)cc2)c1` [Atglistatin], the “Average LMP1 Fold Increase” value turned out to be 0.99, the “Replicate 1-LMP1 Fold Increase” value is given as 0.75 and the “Replicate 2-LMP1 Fold Increase” value amounted to 1.23.
Consider `CC(C)c1c(C(=O)Nc2ccccc2)c(-c2ccccc2)c(-c2ccc(F)cc2)n1CC[C@@H](O)C[C@@H](O)CC(=O)[O-].CC(C)c1c(C(=O)Nc2ccccc2)c(-c2ccccc2)c(-c2ccc(F)cc2)n1CC[C@@H](O)C[C@@H](O)CC(=O)[O-].[Ca+2]` [Atorvastatin Calcium], for which the “Average LMP1 Fold Increase” value turned out to be 0.09, the “Replicate 1-LMP1 Fold Increase” value came to 0.05 and the “Replicate 2-LMP1 Fold Increase” value was found to be 0.14.
Take `Cn1c(=O)n(-c2ccc(C(C)(C)C#N)cc2)c2c3cc(-c4cnc5ccccc5c4)ccc3ncc21` [BEZ 235]: the fold induction at 1 µM was 13.3 (read-out: Average LMP1 Fold Increase, Kem I cells, 1 uM, 48 hours, average of replicates 1 and 2); 17.4 (read-out: Replicate 1-LMP1 Fold Increase, Kem I cells, 1 uM, 48 hours, fold change in LMP1 transcript vs vehicle); 9.2 (read-out: Replicate 2-LMP1 Fold Increase, Kem I cells, 1 uM, 48 hours, fold change in LMP1 transcript vs vehicle).
With `CCN1CCN(c2ccc(Nc3cc(N(C)C(=O)Nc4c(Cl)c(OC)cc(OC)c4Cl)ncn3)cc2)CC1` [BGJ398 (NVP-BGJ398)], the “Average LMP1 Fold Increase” value was 0.85, the “Replicate 1-LMP1 Fold Increase” value was 1.02 and the “Replicate 2-LMP1 Fold Increase” value is listed as 0.69.
As to `CC[C@@H]1C(=O)N(C)c2cnc(Nc3ccc(C(=O)NC4CCN(C)CC4)cc3OC)nc2N1C1CCCC1` [BI 2536], the fold induction at 2.5 µM by setting is: under setting [1], 12.6; under setting [2], 23.3; under setting [3], 1.89.
On to `CC(C)CCN1c2nc(Nc3cc(F)c(O)c(F)c3)ncc2N(C)C(=O)C1C` (stereo not drawn) [BI-D1870], for which the “Average LMP1 Fold Increase” value worked out at 0.50, the “Replicate 1-LMP1 Fold Increase” value was found to be 0.47 and the “Replicate 2-LMP1 Fold Increase” value turned out to be 0.52.
For `C/C(=C\C(=O)Nc1ccccc1C(=O)O)c1ccc2ccccc2c1` [BIBR 1532], in that order: 0.77, 0.63 and 0.91.
Turning to `COc1ccc2c(c1)c(CC(=O)N1CCOCC1)c(C)n2C(=O)c1ccc(Cl)cc1` [BML-190], the “Average LMP1 Fold Increase” value was 0.77, the “Replicate 1-LMP1 Fold Increase” value was found to be 1.01 and the “Replicate 2-LMP1 Fold Increase” value came out at 0.53.
As for `COc1ccnc2[nH]cc(C(=O)C(=O)N3CCN(C(=O)c4ccccc4)C[C@H]3C)c12` [BMS-378806], the “Average LMP1 Fold Increase” value is reported as 0.64, the “Replicate 1-LMP1 Fold Increase” value came to 0.75 and the “Replicate 2-LMP1 Fold Increase” value was determined as 0.53.
Consider `Cn1c(N2CCCCS2(=O)=O)nc(C(=O)NCc2ccc(F)cc2)c(O)c1=O` [BMS-707035], for which the fold induction at 2.5 µM was found to be 43.1 under setting [1], 18.2 under setting [2] and 68 under setting [3].
`O=C(Oc1cc(S(=O)(=O)c2ccccc2)ccc1[N+](=O)[O-])c1ccc(Cl)cc1` [BTB06584]: the “Average LMP1 Fold Increase” value is given as 1.22, the “Replicate 1-LMP1 Fold Increase” value amounted to 1.23 and the “Replicate 2-LMP1 Fold Increase” value is reported as 1.20.
Consider `O=C(Nc1cccc(Nc2ncc(Br)c(NCCc3cnc[nH]3)n2)c1)N1CCCC1` [BX-912], for which the “Average LMP1 Fold Increase” value is 0.37, the “Replicate 1-LMP1 Fold Increase” value stood at 0.40 and the “Replicate 2-LMP1 Fold Increase” value stood at 0.35.
As for `CNC(=O)[C@H](Cc1ccccc1)NC(=O)[C@H](CC(C)C)[C@H](CSc1cccs1)C(=O)NO` [Batimastat (BB-94)], the “Average LMP1 Fold Increase” value was found to be 0.46, the “Replicate 1-LMP1 Fold Increase” value is on record as 0.38 and the “Replicate 2-LMP1 Fold Increase” value is recorded as 0.55.
With `Cc1c(-c2ccc(O)cc2)n(Cc2ccc(OCCN3CCCCCC3)cc2)c2ccc(O)cc12` [Bazedoxifene HCl], the fold induction at 2.5 µM under setting [1] stood at 0.54, the fold induction at 2.5 µM under setting [2] was determined as 0.52 and the fold induction at 2.5 µM under setting [3] amounted to 0.56.
As for `O=C(/C=C/c1cccc(S(=O)(=O)Nc2ccccc2)c1)NO` [Belinostat (PXD101)], the “Average LMP1 Fold Increase” value is reported as 51.63, the “Replicate 1-LMP1 Fold Increase” value is recorded as 17.40 and the “Replicate 2-LMP1 Fold Increase” value was found to be 85.87.
In the case of `COc1c(O)cc2c(c1O)[C@@H]1O[C@H](CO)[C@@H](O)[C@H](O)[C@H]1OC2=O` [Bergenin], the fold induction at 2.5 µM amounted to 0.86 under setting [1], 0.65 under setting [2] and 1.07 under setting [3].
As for `CC[C@H](NC(=O)[C@H](C)NC)C(=O)N1C[C@@H](O)C[C@H]1Cc1c(-c2[nH]c3cc(F)ccc3c2C[C@@H]2C[C@H](O)CN2C(=O)[C@H](CC)NC(=O)[C@H](C)NC)[nH]c2cc(F)ccc12` [Birinapant], the fold induction at 2.5 µM reads like this: under setting [1], 1.03; under setting [2], 1.05; under setting [3], 1.02.
The corresponding values for `CC(C)NCC(O)COc1ccc(COCCOC(C)C)cc1` (stereo not drawn) [Bisoprolol fumarate] are 1.07, 0.41 and 1.73.
Consider `CC(C)C[C@H](NC(=O)[C@H](Cc1ccccc1)NC(=O)c1cnccn1)B(O)O` [Bortezomib (PS-341)], for which the “Average LMP1 Fold Increase” value is 77.22, the “Replicate 1-LMP1 Fold Increase” value came to 150.06 and the “Replicate 2-LMP1 Fold Increase” value is 4.38.
Regarding `COc1ccccc1Oc1c(NS(=O)(=O)c2ccc(C(C)(C)C)cc2)nc(-c2ncccn2)nc1OCCO` [Bosentan Hydrate], the fold induction at 2.5 µM turned out to be 0.81 under setting [1], 1.22 under setting [2] and 0.4 under setting [3].
As for `COc1cc(Nc2c(C#N)cnc3cc(OCCCN4CCN(C)CC4)c(OC)cc23)c(Cl)cc1Cl` [Bosutinib (SKI-606)], the “Average LMP1 Fold Increase” value is on record as 0.81, the “Replicate 1-LMP1 Fold Increase” value stood at 0.36 and the “Replicate 2-LMP1 Fold Increase” value is recorded as 1.26.
In the case of `CCN[C@H]1CN(CCCOC)S(=O)(=O)c2sc(S(N)(=O)=O)cc21` [Brinzolamide], the fold induction at 2.5 µM under setting [1] amounted to 0.21, the fold induction at 2.5 µM under setting [2] is 0.23 and the fold induction at 2.5 µM under setting [3] was determined as 0.2.

For the origin of these results see patent publication US20230053688A1, “METHODS TO ALTER LATENCY IN EBV+ MALIGNANCIES” (Cornell University, priority 2020, published 2023).
